We go through two molecules from article PMC6888386, “Identification of Novel 1,3,5-Triphenylbenzene Derivative Compounds as Inhibitors of Hen Lysozyme Amyloid Fibril Formation” (International Journal of Molecular Sciences, 2019).

The target of series [1] is T1, hen egg white lysozyme (HEWL) (Gallus gallus, UniProt P00698).
T1 construct: Hen egg white lysozyme (HEWL), thioflavin T (ThT), and Congo red (CR) were purchased from Sigma-Aldrich; purchased Sigma-Aldrich (St. Louis, MO, USA); host or cells: hen egg white (per the product name)
T1 sequence (P00698 19-147): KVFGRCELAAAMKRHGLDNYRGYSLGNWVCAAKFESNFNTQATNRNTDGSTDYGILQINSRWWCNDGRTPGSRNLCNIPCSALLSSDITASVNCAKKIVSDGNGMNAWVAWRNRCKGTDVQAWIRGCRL
Put plainly: ThT fluorescence assay of HEWL amyloid fibril formation. The class given is biochemical. The settings on record: 48 h. How it is done:
The inhibition potential of the six compounds was determined using the ThT fluorescence assay to measure the amount of amyloid aggregates after the addition of various concentrations of each compound ranging from 0.03 to 2.6 µM. Aggregation of HEWL was induced by incubating the protein for 48 h at a concentration of 2 mg/mL (140 µM) in 50 mM glycine buffer, pH 2.5, and 57 °C, while stirred gently by magnetic bars (rpm 250), in the absence or presence of 0.03–2.6 µM compounds 1–6. […] The IC50 values of the compounds, corresponding to the concentration at which the inhibitory effect is half of the maximum effect, were determined (Figure 2).
(§1) HEWL concentration was determined by optical absorption at 280 nm (ε280 = 2.65 L·g^−1·cm^−1). HEWL was dissolved to a concentration of 2 mg/mL (140 µM) in 50 mM glycine buffer, pH 2.5, centrifuged for 10 min at 13,000 rpm, then incubated at 57 °C for the specified time lengths in the absence or presence of the indicated concentrations of compounds 1–6, under gentle stirring at 250 rpm by a Teflon magnetic bar.
A mother solution of 2.5 mM ThT was prepared in 10 mM sodium phosphate buffer, 150 mM NaCl, pH 7.0. It was then passed through a 0.45 μm filter paper and stored at 4 °C until it was placed at room temperature immediately before use. At regular time intervals, a 10 µL aliquot of protein solution was mixed with 990 μL of ThT solution in a 10 × 10 mm quartz cuvette and the fluorescence emission spectra were recorded at room temperature using a Cary Eclipse VARIAN fluorescence spectrophotometer (Varian, Mulgrave, Australia) and an excitation wavelength of 440 nm.

The target of series [2] is T1, hen egg white lysozyme (HEWL). In words: Congo red (CR) assay of HEWL aggregation. The class given is biochemical. Conditions: 0.32 µM compound, HEWL pre-incubated 48 h under aggregating conditions. How it is done:
Aliquots of the same samples used for ThT experiments were also used to carry out the CR assays. […] The higher CR absorbance obtained in the presence of HEWL is likely to originate from the presence of protein aggregates that scatter light, whereas the red shift of the peak from 490 to 520–540 nm indicates the presence of β-sheet containing aggregates.
as §1
Since compounds 1–6 have optical absorption spectra partially overlapped to that of CR, all protein samples were centrifuged at 10,000 rpm and the pellets resuspended in 50 mM glycine buffer, pH 2.5, at room temperature. A mother solution of 20 mM CR was prepared in 5 mM sodium phosphate buffer, 150 mM NaCl, pH 7.4, it was then filtered using a center-glass N4 filter and stored at 4 °C, until it was placed at room temperature immediately before use. At different time points during protein aggregation, a 60 μL aliquot of resuspended protein solution was mixed with 440 μL of CR solution. Optical absorption spectra were acquired after 2–3 min equilibration at 25 °C, using a Cecil 7200 UV–visible spectrophotometer (Aquarius, Cambridge, England) and a 1 cm path-length cell.

For series [3] the target is unchanged. Put plainly: FTIR spectroscopy of HEWL aggregates. In kind it is biochemical. Conditions: 0.32 µM compound, 48 h, resuspended in D2O. As for the experimental part:
New samples of HEWL aggregates with or without compounds 1–6 at a concentration of 0.32 µM were prepared, under the same conditions as those used for ThT and CR experiments, centrifuged after 48 h to collect the aggregates, resuspended at high concentration in D2O and analyzed with FTIR spectroscopy, to determine the effects of the six compounds on the secondary structure of the HEWL aggregates. […] Another peak is present at ca. 1650 cm^−1 attributable to either unordered or α-helical secondary structure.
Samples were incubated for 48 h to promote aggregation as described above in the presence of 0.32 µM compounds 1–6, centrifuged at 13,000× g for 10 min and resuspended in D2O to a final volume of 72.8 μL, to reach a final concentration of 27.8 mg/mL. For each sample, 40 μL was deposited onto an Omni-Cell transmission cell with a 25 μm spacer (Specac, Orpington, UK), and Fourier-transform infrared (FTIR) spectra were recorded using a FTS-40 FTIR spectrometer (Bio-Rad, Hercules, CA, USA) purged with a continuous flow of dry air. Sixty-four interferograms were accumulated in each case at a spectral resolution of 1 cm^−1. The FTIR absorbance spectra were blank-subtracted and baseline-corrected to reveal the amide I region (1600–1700 cm^−1). […]

The test system of series [4] is SH-SY5Y human neuroblastoma cells. Put plainly: MTT reduction test with HEWL aggregates. The settings on record: 24 h, 2 µM (monomer equivalents) HEWL aggregates formed in the presence of 0.32 µM compound. In kind it is cell-based. How it is done: (§2) We then assessed the cytotoxicity of HEWL aggregates, formed in the absence or presence of compounds 1–6, according to the aggregation protocol described for the ThT experiments. HEWL aggregates were collected by centrifugation, dried under N2, dissolved in cell culture medium, and added to SH-SY5Y human neuroblastoma cells at a concentration of 2 µM (monomer equivalents). The ability of the resulting aggregates to cause cellular dysfunction was assessed by performing the MTT reduction inhibition assay, a widely used indicator of mitochondrial dysfunction. […] Very similar results were obtained by measuring the activity of caspase-3, a well-recognized apoptotic marker. A significant activation of caspase-3 (320 ± 12%, as compared to untreated cells) was observed following treatment for 24 h of SH-SY5Y cells with HEWL aggregates at 2 µM (Figure 7B).
(§3) Authenticated human neuroblastoma SH-SY5Y cells were purchased from American Type Culture Collection (ATCC) (Manassas, VA, USA) and they tested negative for mycoplasma contaminations. SH-SY5Y cells were cultured in Dulbecco’s modified Eagle’s medium (DMEM), F-12 Ham with 25 mM HEPES and NaHCO3 (1:1) supplemented with 10% fetal bovine serum (FBS), 1.0 mM glutamine and 1.0% penicillin and streptomycin solution. Cells were maintained in a 5.0% CO2 humidified atmosphere at 37 °C and grown until 80% confluence for a maximum of 20 passages.
HEWL samples pre-incubated for 48 h under aggregating conditions in the absence or presence of 0.32 µM compounds 1–6 were centrifuged and the pellets were dried under N2 to remove any compounds and DMSO, dissolved in cell culture medium at a final HEWL concentration of 2 μM (monomer equivalents), and added to SH-SY5Y cells seeded in 96-well plates for 24 h at 37 °C. The cell medium was then removed and the MTT solution (0.5 mg/mL in RPMI) was added to the cells for 4 h. The medium was then aspirated, and the formazan product was solubilized with cell lysis buffer (20% SDS, 50% N, N-dimethylformamide, pH 4.7) for 1 h, as previously described.
Background: Tetrazolium dyes change colour on reduction, which living cells bring about.

Series [5] has as its system caspase-3 activity in SH-SY5Y cells. In words: Caspase-3 activity after exposure to HEWL aggregates. The class given is cell-based, human. Conditions: 24 h, 2 µM HEWL aggregates formed in the presence of 0.32 µM compound. How it is done:
as §2, §3
HEWL aggregates were formed in the absence or in the presence of 0.32 µM of compounds 1–6 as described in the previous section and then added to the cell culture medium of SH-SY5Y cells seeded on glass coverslips for 24 h at 2 μM (monomer equivalents). Caspase-3 activity was then analyzed by using FAM FLICA^TM caspases 3 & 7 solution (caspase 3 & 7 FLICA kit FAM-DEVDFMK, Immunochemistry Technologies, LLC, Bloomington, MN, USA). Cell fluorescence was analyzed by the TCS SP8 scanning confocal microscopy system (Leica Microsystems, Mannheim, Germany) equipped with an argon laser source, as previously reported. A series of 1.0 μm thick optical sections (1024 × 1024 pixels) was taken through the cell depth for each sample using a Leica Plan Apo 63 × oil immersion objective for fluorescence measurement at 488 nm. The confocal microscope was set at optimal acquisition conditions, e.g., pinhole diameters, detector gain, and laser powers. Settings were maintained constant for each analysis.

Series [6] has as its system HEWL. Details: method as in PMID 27597412. The settings on record: HEWL amyloid fibril formation; read-out: IC50 value of a representative bis(indolyl)phenylmethane; cited from earlier work.

Take `Fc1ccc(-c2cc(-c3ccc(F)cc3)cc(-c3ccc(F)cc3)c2)cc1` [Compound 2, 1,3,5-tris(4-fluorophenyl)benzene]: the melting point (as a rule, the temperature, or range, at which the solid turns liquid) lay in the range of 238 to 240 °C. Also, the “Relative efficacy as inhibitor in terms of IC50 value” in series [1] (HEWL 140 µM, pH 2.5, 57 °C) was “best inhibitor”. The IC50 (commonly the concentration needed to halve the response being measured) in series [1] (HEWL 2 mg/mL (140 µM), 50 mM glycine buffer pH 2.5, 57 °C, stirring 250 rpm, compound 0.03-2.6 µM, Figure 2, read-out: IC50 of prevention of HEWL amyloid fibril formation) came out at 0.05 µM. The “CR absorbance relative to that measured in the absence of the compounds” value in series [2] is listed as “lower”. Further, in series [3], the “Change of secondary structure of HEWL aggregates (amide I, loss of β-sheet)” value is “most remarkable change”. For the same molecule, the “MTT reduction relative to untreated cells” value in series [4] is on record as 96.2 ± 3.2%. Moreover, the “Prevention of the apoptotic response (caspase-3 activation) induced by aggregates” value in series [5] is on record as “significantly prevented”.

For the molecule bis(indolyl)phenylmethane, in series [6], the IC50 was 12.3 ± 1 µM.
